# Test results reported in patent publication US20120321579A1, “SURFACTANT COMPOSITIONS” (ANTERIOS, INC., priority 2011, published 2012).
# System: Axillary Sweating
# Test: Clinical study to evaluate effect of Polysorbate 80 on axillary sweating (gravimetric sweat measurement)
# Format: in vivo, human
substance,measurement,setting,value
Polysorbate 80,conclusion on activity in reducing sweat production,conclusion from the clinical study,biologically active in reducing sweat production
same,reduction in sweat production (average) as measured by gravimetric sweat measurement,"two weeks after a single topical treatment, 14.34 mg Polysorbate 80 per axilla (0.3 mL/axilla), subjects with moderate to severe primary axillary hyperhidrosis, 5 minute collection",159 mg
same,"greater reduction in sweat production than the subjects in the control group (placebo, water)","two weeks after a single topical treatment, 14.34 mg per axilla, 159 mg versus 53 mg placebo",300%
same,percent of subjects with at least a 30% reduction in sweat production when compared to levels at the Baseline visit,"two weeks after a single topical treatment, 14.34 mg per axilla, gravimetric sweat measurement",80%
same,greater effectiveness in reducing sweat production than subjects treated with placebo (responder assessment),"two weeks after a single topical treatment, 80% versus 29% of subjects with at least a 30% reduction",280%
